What was measured:
Prothrombin [1] = target: Prothrombin (Bos taurus, UniProt P00735)
Description: Compound was tested for inhibitory activity against bovine thrombin

[2] = target: Tissue-type plasminogen activator (Homo sapiens, UniProt P00750); assay: The compound was tested for inhibitory activity against tissue plasminogen activator
Plasminogen = Plasminogen (Homo sapiens, UniProt P00747); assay: The compound was tested for inhibitory activity against human plasmin
Coagulation factor X = Coagulation factor X (Homo sapiens, UniProt P00742); assay: The compound was tested for inhibitory activity against Coagulation factor X
[3] = Half life was evaluated in dog; assay type: ADME, organism-based, Canis lupus familiaris; conditions: in vivo
[4] = Compound was tested for percent of oral bioavailability at 10 […] dose in dogs; assay type: ADME, organism-based, Canis lupus familiaris; conditions: dog, in vivo, read-out: Bioavailabiility
Prothrombin [5] = target: Prothrombin (Homo sapiens, UniProt P00734); assay: Compound was tested for inhibitory activity against human thrombin

Tissue-type plasminogen activator, sequence (P00750 whole entry): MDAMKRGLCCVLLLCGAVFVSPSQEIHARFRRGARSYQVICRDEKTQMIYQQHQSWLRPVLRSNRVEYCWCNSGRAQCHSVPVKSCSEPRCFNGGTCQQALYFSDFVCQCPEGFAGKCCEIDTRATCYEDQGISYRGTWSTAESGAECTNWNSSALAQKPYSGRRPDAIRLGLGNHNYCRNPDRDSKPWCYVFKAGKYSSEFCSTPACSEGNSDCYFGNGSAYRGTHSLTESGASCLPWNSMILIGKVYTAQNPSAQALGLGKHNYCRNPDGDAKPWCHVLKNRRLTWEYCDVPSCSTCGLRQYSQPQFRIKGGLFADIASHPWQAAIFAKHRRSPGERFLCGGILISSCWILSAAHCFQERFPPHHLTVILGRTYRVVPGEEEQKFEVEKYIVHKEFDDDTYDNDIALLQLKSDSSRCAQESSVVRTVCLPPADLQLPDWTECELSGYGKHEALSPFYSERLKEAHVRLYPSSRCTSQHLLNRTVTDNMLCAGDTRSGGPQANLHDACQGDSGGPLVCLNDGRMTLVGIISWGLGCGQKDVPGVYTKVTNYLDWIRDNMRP
Plasminogen, sequence (P00747 97-580 limits assumed): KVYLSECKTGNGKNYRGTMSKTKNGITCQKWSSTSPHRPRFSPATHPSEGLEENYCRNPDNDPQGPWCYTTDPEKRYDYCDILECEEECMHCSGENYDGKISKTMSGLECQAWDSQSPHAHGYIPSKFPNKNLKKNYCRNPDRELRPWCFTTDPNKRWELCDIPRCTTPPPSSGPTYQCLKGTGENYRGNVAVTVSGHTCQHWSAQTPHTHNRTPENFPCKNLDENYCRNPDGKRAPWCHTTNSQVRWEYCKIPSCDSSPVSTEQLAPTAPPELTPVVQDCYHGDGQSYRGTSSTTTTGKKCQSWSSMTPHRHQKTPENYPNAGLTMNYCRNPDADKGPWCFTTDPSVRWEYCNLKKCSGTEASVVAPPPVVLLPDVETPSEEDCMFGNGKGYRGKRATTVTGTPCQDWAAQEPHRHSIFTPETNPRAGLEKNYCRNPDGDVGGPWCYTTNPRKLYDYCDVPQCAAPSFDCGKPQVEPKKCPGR
Plasminogen, sequence (P00747 581-810 limits assumed): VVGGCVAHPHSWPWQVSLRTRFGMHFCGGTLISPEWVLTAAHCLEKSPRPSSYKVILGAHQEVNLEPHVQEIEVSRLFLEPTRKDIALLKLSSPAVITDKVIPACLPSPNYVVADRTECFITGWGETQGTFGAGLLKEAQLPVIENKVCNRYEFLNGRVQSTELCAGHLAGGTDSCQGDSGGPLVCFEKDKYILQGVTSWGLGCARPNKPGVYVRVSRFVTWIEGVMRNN
Coagulation factor X, sequence (P00742 41-179 limits assumed): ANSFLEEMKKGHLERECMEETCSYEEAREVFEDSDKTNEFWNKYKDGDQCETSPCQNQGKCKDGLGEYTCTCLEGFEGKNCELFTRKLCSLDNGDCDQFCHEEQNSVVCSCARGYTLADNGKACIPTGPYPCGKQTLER
Coagulation factor X, sequence (P00742 235-488 limits assumed): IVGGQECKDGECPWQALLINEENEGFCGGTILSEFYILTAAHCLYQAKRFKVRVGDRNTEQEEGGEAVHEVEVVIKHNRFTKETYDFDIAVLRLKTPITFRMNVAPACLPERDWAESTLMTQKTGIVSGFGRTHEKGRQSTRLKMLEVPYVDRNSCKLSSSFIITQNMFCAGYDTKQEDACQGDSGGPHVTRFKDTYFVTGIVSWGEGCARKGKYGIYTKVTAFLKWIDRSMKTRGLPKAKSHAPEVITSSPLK

SMILES | Ki (Prothrombin [1]) [nM] | Ki [2] [nM] | Ki (Plasminogen) [nM] | Ki (Coagulation factor X) [nM] | half-life [3] [h] | bioavailability [4] [%] | Ki (Prothrombin [5]) [nM]
CCN(C(=O)[C@H](Cc1ccc(C(=N)NN)cc1)NS(=O)(=O)c1ccc2ccccc2c1)C1CCCC1 | 4 | – | – | – | – | – | –
N=C(NN)c1ccc(C[C@H](NS(=O)(=O)c2ccc3ccccc3c2)C(=O)N2CCCCCC2)cc1 | 1470 | – | – | – | – | – | –
CN(C(=O)[C@H](Cc1ccc(C(=N)NN)cc1)NS(=O)(=O)c1ccc2ccccc2c1)C1CCCC1 | 1.1 | 27200 | 47900 | 1100 | 1.87 | 58 | 0.38
NN=C(N)c1ccc(C[C@H](NS(=O)(=O)c2ccc3ccccc3c2)C(=O)N(CCO)C2CCCC2)cc1 | 7040 | – | – | – | – | – | –

Source: ChEMBL document CHEMBL1131651, “Discovery of LB30057, a benzamidrazone-based selective oral thrombin inhibitor” (Bioorg Med Chem Lett, 1998)
